In PubChem BioAssay AID330 (DTP/NCI, 2004):
Values joined by “and” are separate entries in the source; they are usually repeats but may differ in a detail not shown here. Equal entries are not always repeated. Inconclusive results and toxic doses are left out. How the source made its calls: active means survival T/C of 150% or more; inactive means T/C below 125% in these data.

System: P388 leukemia ip, CD2F1 mice, survival T/C
Experiment: NCI In Vivo Anticancer Drug Screen. Data for tumor model P388 Leukemia (intraperitoneal) in CD2F1 (CDF1) mice
Conditions: endpoint: median survival time, higher = longer survival
Outline: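 Mice carrying the transplanted tumor received test compound or vehicle. Survival was recorded in each group, and the value is the treated-group measurement divided by that of the vehicle-treated control group.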

[1] = dose: 60.0 mg/kg/injection, schedule: Q01DX005 (ip), vehicle: saline with Tween-80
[2] = dose: 120.0 mg/kg/injection, schedule: Q01DX005 (ip), vehicle: saline with Tween-80
[3] = dose: 240.0 mg/kg/injection, schedule: Q01DX005 (ip), vehicle: saline with Tween-80
[4] = dose: 50.0 mg/kg/injection, schedule: Q01DX009 (ip), vehicle: saline with Tween-80
[5] = dose: 50.0 mg/kg/injection, schedule: Q01DX009 (ip), vehicle: saline
[6] = dose: 100.0 mg/kg/injection, schedule: Q01DX009 (ip), vehicle: saline
[7] = dose: 60.0 mg/kg/injection, schedule: Q01DX005 (ip), vehicle: Klucel (hydroxypropylcellulose) (HPC)
[8] = dose: 120.0 mg/kg/injection, schedule: Q01DX005 (ip), vehicle: Klucel (hydroxypropylcellulose) (HPC)
[9] = dose: 50.0 mg/kg/injection, schedule: Q01DX005 (ip), vehicle: saline with Tween-80
[10] = dose: 100.0 mg/kg/injection, schedule: Q01DX005 (ip), vehicle: saline with Tween-80
[11] = dose: 200.0 mg/kg/injection, schedule: Q01DX005 (ip), vehicle: saline with Tween-80
[12] = dose: 25.0 mg/kg/injection, schedule: Q01DX009 (ip), vehicle: saline
[13] = dose: 25.0 mg/kg/injection, schedule: Q01DX009 (ip), vehicle: Klucel (hydroxypropylcellulose) (HPC)
[14] = dose: 50.0 mg/kg/injection, schedule: Q01DX009 (ip), vehicle: Klucel (hydroxypropylcellulose) (HPC)
[15] = dose: 100.0 mg/kg/injection, schedule: Q01DX009 (ip), vehicle: Klucel (hydroxypropylcellulose) (HPC)
[16] = dose: 200.0 mg/kg/injection, schedule: Q01DX009 (ip), vehicle: Klucel (hydroxypropylcellulose) (HPC)
[17] = dose: 100.0 mg/kg/injection, schedule: Q04DX002 (ip), vehicle: saline
[18] = dose: 200.0 mg/kg/injection, schedule: Q04DX002 (ip), vehicle: saline
[19] = dose: 400.0 mg/kg/injection, schedule: Q04DX002 (ip), vehicle: saline

Measured: T/C

O=C(O)C(CS)NSc1ccccc1[N+](=O)[O-] (centres undefined)
inactive: [1] 111 % of control | [2] 112 % of control | [3] 102 % of control

Cc1cc(N(C)C)nc2cc(N)ccc12
inactive: dose: 12.5 mg/kg/injection, schedule: Q01DX009 (ip), vehicle: saline with Tween-80 103 % of control | dose: 25.0 mg/kg/injection, schedule: Q01DX009 (ip), vehicle: saline with Tween-80 111 % of control | [4] 101 % of control and 89 % of control

S=C(S)N1CCCC1
inactive: [5] 100 % of control | [6] 93 % of control

CN(C)C(=O)c1ccc(SC(=S)NCc2ccccc2)cc1
inactive: dose: 15.0 mg/kg/injection, schedule: Q01DX005 (ip), vehicle: Klucel (hydroxypropylcellulose) (HPC) 103 % of control | dose: 30.0 mg/kg/injection, schedule: Q01DX005 (ip), vehicle: Klucel (hydroxypropylcellulose) (HPC) 103 % of control | [7] 101 % of control and 104 % of control | [8] 115 % of control

c1ccc2c3c(cc(CNCCNCc4cc5c(c6ccccc46)CCCC5)c2c1)CCCC3
inactive: [9] 87 % of control | [10] 96 % of control | [11] 110 % of control

COC(=O)Nc1cc2c(cc1[N+](=O)[O-])OCCOCCOCCOCCO2
inactive: [9] 100 % of control | [10] 98 % of control | [11] 101 % of control

Nc1ccc2c(c1N)C(=O)c1ccccc1C2=O
inactive: dose: 50.0 mg/kg/injection, schedule: Q01DX005 (ip), vehicle: Klucel (hydroxypropylcellulose) (HPC) 101 % of control | dose: 100.0 mg/kg/injection, schedule: Q01DX005 (ip), vehicle: Klucel (hydroxypropylcellulose) (HPC) 100 % of control | dose: 200.0 mg/kg/injection, schedule: Q01DX005 (ip), vehicle: Klucel (hydroxypropylcellulose) (HPC) 100 % of control

Clc1ccccc1C(Nc1nncs1)Nc1nncs1
inactive: [1] 106 % of control | [2] 113 % of control | [3] 122 % of control

NC(=O)C12OC3CC(CC(C3)O1)O2
inactive: dose: 60.0 mg/kg/injection, schedule: Q01DX005 (ip), vehicle: saline 117 % of control | dose: 120.0 mg/kg/injection, schedule: Q01DX005 (ip), vehicle: saline 98 % of control | dose: 240.0 mg/kg/injection, schedule: Q01DX005 (ip), vehicle: saline 99 % of control

CC(C)CC(CC(C)C)[N+](=O)[O-]
inactive: [9] 111 % of control | [10] 105 % of control | [11] 107 % of control

c1ccc2c(c1)CN1CCN=C1N2
inactive: [12] 100 % of control | [5] 94 % of control

C=Cc1c(C)c(O)cc2c1-c1ccc(O)c(C)c1CC2
inactive: [13] 104 % of control | [14] 100 % of control | [15] 92 % of control | [16] 93 % of control

COc1ccc(S(=O)(=O)NCCSSCCNS(=O)(=O)c2ccc(OC)cc2)cc1
inactive: [14] 91 % of control | [15] 93 % of control | [16] 94 % of control

Cc1nc(Cl)c2cnccn12
inactive: dose: 25.0 mg/kg/injection, schedule: Q04DX003 (ip), vehicle: saline 100 % of control | dose: 50.0 mg/kg/injection, schedule: Q04DX003 (ip), vehicle: saline 100 % of control

COc1cccc2c1C(=O)c1c(O)c3c(c(O)c1C2=O)CC(O)(C(=O)CO)CC3OC1CC(N)C(O)C(C)O1 (centres undefined) (tested in a mixture with another compound)
inactive: dose: 6.25 mg/kg/injection, schedule: Q01DX009 (ip), vehicle: other 115 % of control | dose: 25.0 mg/kg/injection, schedule: Q01DX009 (ip), vehicle: other 89 % of control

Cc1ccccc1/C(=C/c1ccc([N+](=O)[O-])cc1)C(=O)O
inactive: [7] 108 % of control | [8] 108 % of control | dose: 240.0 mg/kg/injection, schedule: Q01DX005 (ip), vehicle: Klucel (hydroxypropylcellulose) (HPC) 112 % of control

C/C=C(\CC[Se]c1ccccc1)C(=O)OC
inactive: dose: 50.0 mg/kg/injection, schedule: Q01DX009 (ip), vehicle: distilled water + Tween-80 + alcohol 108 % of control | dose: 100.0 mg/kg/injection, schedule: Q01DX009 (ip), vehicle: distilled water + Tween-80 + alcohol 98 % of control | dose: 200.0 mg/kg/injection, schedule: Q01DX009 (ip), vehicle: distilled water + Tween-80 + alcohol 106 % of control

Nc1ccc(C(=O)CCl)c(Cl)c1
inactive: dose: 12.5 mg/kg/injection, schedule: Q01DX009 (ip), vehicle: Klucel (hydroxypropylcellulose) (HPC) 107 % of control | [13] 110 % of control | [14] 110 % of control and 116 % of control

CCOC(=O)CCC(Br)(Br)Br
inactive: [14] 100 % of control | [15] 100 % of control | [16] 97 % of control

O=C(Cc1nc(-c2ccc(Cl)cc2)no1)c1ccccc1
inactive: [4] 91 % of control | dose: 100.0 mg/kg/injection, schedule: Q01DX009 (ip), vehicle: saline with Tween-80 87 % of control

COc1ccc(C2OC3=Nc4cc(C)c(C)cc4NC3C2=O)cc1OC (centres undefined)
inactive: [1] 101 % of control | [2] 101 % of control | [3] 99 % of control

O=C(Cc1csc2ccccc12)NCC1CC1
inactive: [1] 100 % of control | [2] 99 % of control | [3] 99 % of control

O=C(OC(=O)c1cccc(-c2ccccc2)c1)c1cccc(-c2ccccc2)c1
inactive: dose: 100.0 mg/kg/injection, schedule: Q04DX003 (ip), vehicle: Klucel (hydroxypropylcellulose) (HPC) 104 % of control | dose: 200.0 mg/kg/injection, schedule: Q04DX003 (ip), vehicle: Klucel (hydroxypropylcellulose) (HPC) 90 % of control | dose: 400.0 mg/kg/injection, schedule: Q04DX003 (ip), vehicle: Klucel (hydroxypropylcellulose) (HPC) 90 % of control

O=S(=O)(Nc1ncccn1)c1ccc(NCc2c3ccccc3nc3ccccc23)cc1
inactive: dose: 12.5 mg/kg/injection, schedule: Q04DX002 (ip), vehicle: Klucel (hydroxypropylcellulose) (HPC) 96 % of control | dose: 25.0 mg/kg/injection, schedule: Q04DX002 (ip), vehicle: Klucel (hydroxypropylcellulose) (HPC) 99 % of control | dose: 50.0 mg/kg/injection, schedule: Q04DX002 (ip), vehicle: Klucel (hydroxypropylcellulose) (HPC) 87 % of control and 96 % of control | dose: 100.0 mg/kg/injection, schedule: Q04DX002 (ip), vehicle: Klucel (hydroxypropylcellulose) (HPC) 87 % of control and 90 % of control | dose: 200.0 mg/kg/injection, schedule: Q04DX002 (ip), vehicle: Klucel (hydroxypropylcellulose) (HPC) 96 % of control | dose: 400.0 mg/kg/injection, schedule: Q04DX002 (ip), vehicle: Klucel (hydroxypropylcellulose) (HPC) 91 % of control and 96 % of control

CCCCN(CCC#N)c1ccc(/C=C/c2ccnc3ccccc23)cc1
inactive: [13] 96 % of control | [14] 96 % of control

[Cl][Cu][Cl].c1ccc2c(c1)Sc1ccccc1[N+]2=c1ccc2nc3ccccc3sc-2c1
inactive: [7] 87 % of control | [8] 95 % of control

CCCCCCCCCCCCCCCCCC(=O)NC1c2ccccc2Oc2ccccc21
inactive: [9] 87 % of control | [10] 90 % of control | [11] 92 % of control

COP(=O)(OC)OC.COP(=O)(OC)OC.COP(=O)(OC)OC.COP(=O)(OC)OC.COP(=O)(OC)OC.[O-][Cl+3]([O-])([O-])O.[Zn+2]
inactive: [12] 104 % of control and 114 % of control | [5] 106 % of control and 112 % of control (2×) | [6] 118 % of control and 119 % of control and 123 % of control

CCCCNc1ncc(S(=O)(=O)Cc2ccc3c(c2)OCO3)c(N)n1
inactive: [17] 94 % of control | [18] 100 % of control | [19] 90 % of control

CN(C)CCCCNc1ccc(NCCCCN(C)C)c2c1C(=O)c1c(O)ccc(O)c1C2=O
inactive: dose: 12.5 mg/kg/injection, schedule: Q01DX009 (ip), vehicle: saline 100 % of control | [12] 108 % of control | [5] 106 % of control

Cc1nc2c(cc1C#N)C(Nc1ccc(Cl)cc1)Oc1ccc([N+](=O)[O-])cc1-2 (centres undefined)
inactive: [1] 92 % of control | [2] 92 % of control | [3] 90 % of control

Cc1cc(C)n(-c2ccc3nnnn3n2)n1
inactive: [17] 93 % of control | [18] 93 % of control | [19] 102 % of control

S=c1nc[nH]c2nc(-c3ccccc3)[nH]c12
inactive: dose: 12.5 mg/kg/injection, schedule: Q01DX005 (ip), vehicle: other 101 % of control | dose: 25.0 mg/kg/injection, schedule: Q01DX005 (ip), vehicle: other 100 % of control | dose: 50.0 mg/kg/injection, schedule: Q01DX005 (ip), vehicle: other 101 % of control | dose: 100.0 mg/kg/injection, schedule: Q01DX005 (ip), vehicle: other 92 % of control | dose: 200.0 mg/kg/injection, schedule: Q01DX005 (ip), vehicle: other 92 % of control
